Test systems include HCT-15 colon; A549 NSCLC; U251 CNS; RPMI-8226 leukemia; OVCAR-8 ovarian; MOLT-4 leukemia; A498 renal; HS 578T breast; MDA-MB-231 breast; SN12C renal; MDA-N; HOP-62 NSCLC; DU-145 prostate; ACHN renal; NCI-H226 lung; SK-MEL-5 melanoma; HCC-2998 colon; MALME-3M melanoma; SR leukemia.
Common to all, as to assay: inhibition of tumour cell growth, NCI panel, 48 h

From PubChem BioAssay (NCI) come the findings set out here.

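96-well plates; 48 h exposure; 5 concentrations. Endpoints by linear interpolation between flanking doses. Not reached: highest tested concentration assigned. TGI: concentration producing complete growth inhibition.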 Where only a bound is given, the exact number is not on record here.

`O=C1CCN=C(NC(=O)C(F)(F)F)N1CCc1c[nH]c2ccccc12`: the TGI in the assay on HCT-15 colon, with A549 NSCLC, with U251 CNS, in the assay with RPMI-8226 leukemia, with OVCAR-8 ovarian and in the assay with MOLT-4 leukemia was more than 100 µM in each case. Further, the TGI in the assay on A498 renal, in the assay on HS 578T breast, with MDA-MB-231 breast, in the assay with SN12C renal, in the assay with MDA-N and in the assay on HOP-62 NSCLC was more than 100 µM each time. For the same molecule, the TGI with DU-145 prostate, with ACHN renal, in the assay with NCI-H226 lung, in the assay on SK-MEL-5 melanoma, in the assay on HCC-2998 colon and in the assay with MALME-3M melanoma was more than 100 µM in each case.
As for `CC(C)C(C)C(O)C(O)C(C)C1CCC2C3COC(=O)C4CC(O)C(O)CC4(C)C3CCC12C` (stereo not drawn), the TGI in the assay with HCT-15 colon was more than 100 µM; with A549 NSCLC, more than 100 µM; in the assay on U251 CNS, more than 100 µM; in the assay on OVCAR-8 ovarian, more than 100 µM; in the assay with MOLT-4 leukemia it was 59.1 µM; in the assay on A498 renal, more than 100 µM. For the same molecule, the TGI with HS 578T breast, with MDA-MB-231 breast, with SN12C renal, in the assay on MDA-N, with DU-145 prostate and in the assay with ACHN renal was more than 100 µM throughout. The TGI with NCI-H226 lung, with SK-MEL-5 melanoma, in the assay on HCC-2998 colon and in the assay on MALME-3M melanoma was more than 100 µM each time.
Regarding `COc1c(N2CCCCC2)c2c(=O)c3ccccc3oc2c2cc(C)oc12`, the TGI was more than 100 µM with HCT-15 colon; more than 100 µM with A549 NSCLC; more than 100 µM in the assay with U251 CNS; 50.3 µM in the assay on RPMI-8226 leukemia; more than 100 µM with OVCAR-8 ovarian; more than 100 µM in the assay with MOLT-4 leukemia. In addition, the TGI was 61.6 µM in the assay on A498 renal; 79.6 µM with HS 578T breast; 44.2 µM with MDA-MB-231 breast; 84.8 µM in the assay with SN12C renal; 63.9 µM in the assay with MDA-N; more than 100 µM with HOP-62 NSCLC. Also, the TGI was 77.5 µM in the assay on DU-145 prostate; 53.7 µM in the assay on ACHN renal; 45.4 µM in the assay with NCI-H226 lung; 40.7 µM in the assay with SK-MEL-5 melanoma; more than 100 µM with HCC-2998 colon; 81 µM with MALME-3M melanoma.
For the molecule `Cc1ccc2c(=O)cc(-c3cc4ccccc4s3)[nH]c2n1`, the TGI in the assay with HCT-15 colon, in the assay on A549 NSCLC, with U251 CNS, in the assay with RPMI-8226 leukemia, in the assay on OVCAR-8 ovarian and in the assay on MOLT-4 leukemia was more than 100 µM in each case. Besides, the TGI with HS 578T breast, in the assay with MDA-MB-231 breast, with SN12C renal, in the assay on MDA-N, in the assay with HOP-62 NSCLC and in the assay with DU-145 prostate was more than 100 µM each time. For the same molecule, the TGI in the assay on ACHN renal was more than 100 µM; in the assay with NCI-H226 lung, 98.6 µM; with SK-MEL-5 melanoma it was more than 100 µM; with HCC-2998 colon it was more than 100 µM; with MALME-3M melanoma, more than 100 µM.
Take `COc1cc2c(NCCN(C)C)nc3c4cc5c(cc4ccc3c2cc1OC)OCO5`: the TGI in the assay on HCT-15 colon is 6.56 µM; with A549 NSCLC, 6.67 µM; in the assay on U251 CNS, 7.83 µM; in the assay on RPMI-8226 leukemia, 17.2 µM; in the assay on OVCAR-8 ovarian it was 6.97 µM; in the assay with MOLT-4 leukemia it was 5.3 µM. In addition, the TGI in the assay on A498 renal was 5.86 µM; in the assay with HS 578T breast, 12.4 µM; with MDA-MB-231 breast it was 9.05 µM; in the assay on SN12C renal, 8.17 µM; with MDA-N, 6.99 µM; with HOP-62 NSCLC it was 7.09 µM. Further, the TGI in the assay on DU-145 prostate is 7.32 µM; in the assay with ACHN renal it was 4.01 µM; in the assay with NCI-H226 lung, 8.18 µM; with SK-MEL-5 melanoma, 5.87 µM; with HCC-2998 colon, 8.93 µM; in the assay on MALME-3M melanoma it was 7.78 µM.
Consider `Cc1ccc(N/N=C/C2=CC(C)(C)C(C#N)(C#N)C(O)=C2C#N)cc1`, for which the TGI is more than 100 µM with A549 NSCLC; 91.2 µM in the assay on SR leukemia; 93.7 µM in the assay with RPMI-8226 leukemia; more than 100 µM in the assay on OVCAR-8 ovarian; more than 100 µM in the assay on MOLT-4 leukemia; more than 100 µM with HS 578T breast. For the same molecule, the TGI with MDA-MB-231 breast, with SN12C renal, with MDA-N, in the assay with HOP-62 NSCLC, with DU-145 prostate and in the assay on ACHN renal was more than 100 µM throughout. The TGI in the assay with NCI-H226 lung, with SK-MEL-5 melanoma, in the assay with HCC-2998 colon and with MALME-3M melanoma was more than 100 µM in each case.
As to `c1cc2c(cc1NC1=NCCO1)CCCC2`, the TGI in the assay with HCT-15 colon stood at 22.4 µM; in the assay with A549 NSCLC, 39.9 µM; in the assay on U251 CNS it was 24.8 µM; with RPMI-8226 leukemia it was 12 µM; with OVCAR-8 ovarian, 12.5 µM; in the assay on MOLT-4 leukemia, 9.67 µM. Also, the TGI in the assay on A498 renal is 9.74 µM; in the assay with HS 578T breast, 23 µM; with MDA-MB-231 breast, 6.1 µM; in the assay with SN12C renal, 36.6 µM; in the assay on MDA-N, 3.18 µM; with HOP-62 NSCLC, 10.9 µM. The TGI amounted to 24.6 µM with DU-145 prostate; 72.9 µM in the assay with ACHN renal; 11.4 µM in the assay with NCI-H226 lung; 9.17 µM in the assay on SK-MEL-5 melanoma; 9.8 µM in the assay with HCC-2998 colon; 21.9 µM with MALME-3M melanoma.
Take `O=C(c1ccc(-c2ccccc2)cc1)N(Cc1cccnc1)C(=S)N(Cc1cccnc1)C(=O)c1ccc(-c2ccccc2)cc1`: the TGI in the assay on HCT-15 colon was more than 100 µM; in the assay on A549 NSCLC it was more than 100 µM; in the assay with U251 CNS, more than 100 µM; with RPMI-8226 leukemia, 72.4 µM; in the assay on OVCAR-8 ovarian, more than 100 µM; in the assay with A498 renal, more than 100 µM. Besides, the TGI in the assay on HS 578T breast, in the assay on MDA-MB-231 breast, with SN12C renal, in the assay with MDA-N, in the assay with HOP-62 NSCLC and with DU-145 prostate was more than 100 µM each time. Besides, the TGI in the assay on ACHN renal, in the assay on NCI-H226 lung, in the assay with SK-MEL-5 melanoma, with HCC-2998 colon and in the assay with MALME-3M melanoma was more than 100 µM in each case.
